Data as given in article PMC6469168, “Localization of ^99mTc-GRP Analogs in GRPR-Expressing Tumors: Effects of Peptide Length and Neprilysin Inhibition on Biological Responses” (Pharmaceuticals, 2019).
Read-outs that look alike come from different tables or passages of the source. Where no end group is shown, it is not given here. The star is where a group is joined. DOTA = O=C(O)CN1CCN(CC(=O)O)CCN(CC(=O)*)CCN(CC(=O)O)CC1; N4 = tetraamine chelator for 99mTc

Legend:
[1] = target: T1, GRPR-sites on PC-3 cell membranes (Homo sapiens, UniProt P30550); experiment: Competition binding against [^125I-Tyr^4]BBN in PC-3 cell membranes; conditions: 1 h at 22 °C, 50 pM radioligand, triplicates per concentration, read-out: IC50, [^125I-Tyr^4]BBN displacement from GRPR-sites
T1 construct: PC-3 cells endogenously expressing the human GRPR; host or cells: PC-3 cell-membrane homogenates
Method: Moreover, coupling of the positively charged acyclic tetraamine unit in the N-terminus of parent GRP(14/18–27) references improved the affinity of resulting analogs to the GRPR, as previously reported for similarly modified peptide analogs.
(b) GRPR-specific internalization of ^99mTc-N4-GRP(14–27) (red solid line) and ^99mTc-N4-GRP(18–27) (blue solid line) in PC-3 cells during incubation at 37 °C at 15, 30, 60, and 120 min. Results represent average of cell internalized activity ± sd, n = 3; data is corrected for nonspecific internalization in the presence of 1 µM [Tyr^4]BBN.
Competition binding experiments against [^125I-Tyr^4] […] For the assay, triplicates per concentration point (concentration range: 10^−13–10^−6 M) of each test peptide were incubated together with the radioligand (~40,000 cpm per assay tube at a 50 pM concentration) in PC-3 cell-membrane homogenates in a total volume of 300 μL binding buffer (BB, 50 mM HEPES pH 7.4, 1% BSA, 5.5 mM MgCl2, 35 μM bacitracin) for 1 h at 22 °C in an Incubator-Orbital Shaker (MPM Instr. SrI, Bernareggio, Italy). Binding was interrupted by ice-cold washing buffer (WB, 10 mM HEPES pH 7.4, 150 mM NaCl) and rapid filtration (Whatman GF/B filters presoaked in BB) on a Brandel Cell Harvester (Adi Hassel Ing. Büro, Munich, Germany). Filters were washed with ice-cold WB and counted in an automatic well-type gamma counter (NaI(Tl) 3′-crystal, Cobra Packard Auto-Gamma 5000 series instrument). The IC50 values were calculated using nonlinear regression according to a one-site model applying the PRISM 2 program (Graph Pad Software, San Diego, CA, USA).

[2] = target: T2, BB3R in human lung (bronchial) carcinoids (Homo sapiens, UniProt P32247); experiment: Receptor autoradiography competition binding vs ^125I-[DTyr^6,βAla^11,Phe^13,Nle^14]BBN(6–14) in human tumor sections; conditions: human lung (bronchial) carcinoid sections, same universal radioligand, mean ± SEM, n in parentheses, read-out: IC50s in nM, BB3R
T2 construct: from tissue; host or cells: human bronchial carcinoid cryostat sections
T2 sequence (P32247 1-399): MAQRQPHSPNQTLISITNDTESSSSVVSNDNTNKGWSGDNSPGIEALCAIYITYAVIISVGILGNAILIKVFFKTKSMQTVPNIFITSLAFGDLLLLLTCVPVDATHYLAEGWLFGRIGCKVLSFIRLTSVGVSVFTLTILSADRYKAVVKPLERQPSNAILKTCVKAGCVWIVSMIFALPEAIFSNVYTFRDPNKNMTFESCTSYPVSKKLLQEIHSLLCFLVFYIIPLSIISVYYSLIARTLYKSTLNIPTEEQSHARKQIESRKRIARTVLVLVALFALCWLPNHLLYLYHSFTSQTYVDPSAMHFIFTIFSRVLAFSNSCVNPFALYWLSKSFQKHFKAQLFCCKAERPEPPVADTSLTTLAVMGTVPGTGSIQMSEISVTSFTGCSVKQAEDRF
Excerpt: IC50 values are given in nM ± SEM.

[3] = tested on: GRPR; conditions: DOTA-derivatized analogs; read-out: IC50, GRPR binding affinity; cited from earlier work
Excerpt: It is interesting to note that the presence of the positively charged N4^+x-moiety at positions 13 and 17 of the native GRP chain occupy the two basic amino acids Lys^13 and Arg^17.

[4] = target: T2, BB3R in human lung (bronchial) carcinoids; conditions: receptor autoradiography, human lung carcinoid sections; read-out: IC50s in nM, BB3R; cited from earlier work
Excerpt: Receptor autoradiography was applied in cryostat sections of well characterized human cancers, preferentially expressing one of the subtypes.

[5] = target: T3, GRPR expressed in human prostate cancer (Homo sapiens, UniProt P30550); conditions: receptor autoradiography, human prostate cancer sections; mean, n = 2; read-out: IC50s in nM, GRPR; cited from earlier work
T3 construct: from tissue; host or cells: human prostate carcinoma cryostat sections
Excerpt: (§1) Table 1 Affinities for the three human bombesin receptor subtypes. | column: IC50s in nM / GRPR ^1 || The selective affinities of N4-GRP(14–27) for each of the three bombesin receptor subtypes found in mammals were studied during in vitro competition binding assays against the universal radioligand ^125I-[DTyr^6,βAla^11,Phe^13,Nle^14]BBN(6–14). Receptor autoradiography was applied in cryostat sections of well characterized human cancers, preferentially expressing one of the subtypes.

[6] = target: T4, NMBR in human ileal carcinoids (Homo sapiens, UniProt P28336); conditions: receptor autoradiography, human ileal carcinoid sections; mean, n = 2; read-out: IC50s in nM, NMBR; cited from earlier work
T4 construct: from tissue; host or cells: human ileal carcinoid cryostat sections
Excerpt: as §1, with “NMBR ^2” for “GRPR ^1”

[7] = tested on: PC-3 cells; experiment: Internalization assay in PC-3 cells; format: cell-based, human; conditions: 37 °C, corrected for nonspecific (1 µM [Tyr^4]BBN), average ± sd, n = 3
Method: In both cases the bulk of cell-associated radioactivity was found in the cells with ^99mTc-N4-GRP(14–27) internalizing much faster in PC-3 cells compared to ^99mTc-N4-GRP(18–27) at all time intervals (Figure 3b).
The internalization rates of ^99mTc-N4-GRP(14–27) and ^99mTc-N4-GRP(18–27) were compared in PC-3 cells. Briefly, PC-3 cells were seeded in six-well plates (~1 × 10^6 cells per well) 24 h before the experiment. Approximately 50,000 cpm of either ^99mTc-N4-GRP(14–27) or ^99mTc-N4-GRP(18–27) (corresponding to 250 fmol total peptide in 150 μL of 0.5% BSA/PBS) was added alone (total) or in the presence of 1 μM [Tyr^4]BBN (nonspecific). Cells were incubated at 37 °C for 15, 30, 60, and 120 min and incubation was interrupted each time by placing the plates on ice, removing the supernatants and rapid rinsing with ice-cold 0.5% BSA/PBS. Cells were then treated 2 × 5 min with acid wash buffer (2 × 0.6 mL, 50 mM glycine buffer pH 2.8, 0.1 M NaCl) at room temperature and supernatants were collected (membrane-bound fraction). After rinsing with 1 mL chilled 0.5% BSA/PBS, cells were lysed by treatment with 1 N NaOH (2 × 0.6 mL) and lysates were collected (internalized fraction). Sample radioactivity was measured in the γ-counter and percent internalized radioactivity was determined vs. total added activity. Results represent the average values ± sd of three experiments performed in triplicate.

T1 sequence (P30550 whole entry): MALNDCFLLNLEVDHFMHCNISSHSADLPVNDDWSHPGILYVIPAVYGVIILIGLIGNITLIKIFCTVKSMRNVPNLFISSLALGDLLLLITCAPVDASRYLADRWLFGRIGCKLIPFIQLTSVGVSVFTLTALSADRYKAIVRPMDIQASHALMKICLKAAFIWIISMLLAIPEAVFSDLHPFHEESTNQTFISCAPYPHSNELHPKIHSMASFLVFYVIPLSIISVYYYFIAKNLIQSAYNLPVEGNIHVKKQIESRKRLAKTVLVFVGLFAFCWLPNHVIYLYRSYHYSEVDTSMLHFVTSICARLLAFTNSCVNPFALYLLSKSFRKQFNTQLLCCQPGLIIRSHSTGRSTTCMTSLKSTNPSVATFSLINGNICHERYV
T4 sequence (P28336 whole entry): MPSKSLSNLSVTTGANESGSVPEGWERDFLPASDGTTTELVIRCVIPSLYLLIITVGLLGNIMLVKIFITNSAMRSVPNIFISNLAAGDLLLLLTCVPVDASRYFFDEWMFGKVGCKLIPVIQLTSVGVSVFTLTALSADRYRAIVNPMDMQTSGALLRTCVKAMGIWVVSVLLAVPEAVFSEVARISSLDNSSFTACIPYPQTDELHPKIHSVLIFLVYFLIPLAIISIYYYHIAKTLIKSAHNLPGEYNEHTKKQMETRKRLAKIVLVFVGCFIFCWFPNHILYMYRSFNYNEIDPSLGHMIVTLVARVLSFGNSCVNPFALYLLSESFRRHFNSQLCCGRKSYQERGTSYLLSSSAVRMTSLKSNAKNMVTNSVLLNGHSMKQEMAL
T3 sequence (P30550 whole entry): as the sequence (P30550 whole entry) above

CSCC[C@H](NC(=O)[C@H](CC(C)C)NC(=O)[C@H](Cc1c[nH]cn1)NC(=O)CNC(=O)[C@@H](NC(=O)[C@H](C)NC(=O)[C@H](Cc1c[nH]c2ccccc12)NC(=O)[C@H](Cc1c[nH]cn1)NC(=O)[C@H](CC(N)=O)NC(=O)CNC(=O)[C@H](CCCNC(=N)N)NC(=O)[C@@H]1CCCN1C(=O)[C@H](Cc1ccc(O)cc1)NC(=O)[C@@H](N)CCSC)C(C)C)C(N)=O [GRP(14–27)]
IC50 [1]: 0.45 ± 0.02 nM

CSCC[C@H](NC(=O)[C@H](CC(C)C)NC(=O)[C@H](Cc1cnc[nH]1)NC(=O)CNC(=O)[C@@H](NC(=O)[C@H](C)NC(=O)[C@H](Cc1c[nH]c2ccccc12)NC(=O)[C@H](Cc1cnc[nH]1)NC(=O)[C@H](CC(N)=O)NC(=O)CN)C(C)C)C(N)=O [GRP(18–27), H-Gly-Asn-His-Trp-Ala- Val-Gly-His-Leu-Met-NH2]
IC50 [1]: 1.66 ± 0.2 nM

CSCC[C@H](NC(=O)[C@H](CC(C)C)NC(=O)[C@H](Cc1c[nH]cn1)NC(=O)CNC(=O)[C@@H](NC(=O)[C@H](C)NC(=O)[C@H](Cc1c[nH]c2ccccc12)NC(=O)[C@H](Cc1c[nH]cn1)NC(=O)[C@H](CC(N)=O)NC(=O)CNC(=O)[C@H](CCCNC(=N)N)NC(=O)[C@@H]1CCCN1C(=O)[C@H](Cc1ccc(O)cc1)NC(=O)[C@H](CCSC)NC(=O)C(CNCCN)CNCCN)C(C)C)C(N)=O [N4-GRP(14–27)]
IC50 [1]: 0.32 ± 0.03 nM
IC50 [2]: > 1000 nM

CSCC[C@H](NC(=O)[C@H](CC(C)C)NC(=O)[C@H](Cc1c[nH]cn1)NC(=O)CNC(=O)[C@@H](NC(=O)[C@H](C)NC(=O)[C@H](Cc1c[nH]c2ccccc12)NC(=O)[C@H](Cc1c[nH]cn1)NC(=O)[C@H](CC(N)=O)NC(=O)CNC(=O)C(CNCCN)CNCCN)C(C)C)C(N)=O [N4-GRP(18–27)]
IC50 [1]: 0.63 ± 0.06 nM

DOTA-GRP(14–27): GRP(14–27) coupled to DOTA, previously reported ({DOTA}-MYPRGNHWAVGHLM-NH2; ends and bridges not checked; UniProt P07492 37-50, looked up, fragment)
IC50 [3]: 6.6 ± 0.9 nM

DOTA-GRP(18–27): GRP(18–27) coupled to DOTA, previously reported
IC50 [3]: 112 ± 16 nM

N4-[Pro^1,Tyr^4]BBN (PQRYGNQWAVGHLM) [Demobesin 3, tetraamine derivatized BBN-like analog]
IC50 [4]: > 100 nM
IC50 [5]: 0.5 nM

N4-[Pro^1,Tyr^4]BBN (PQRYGNQWAVGHLM; not fully specified (N-terminus); ends and bridges not checked) [Demobesin 3, tetraamine derivatized BBN-like analog]
IC50 [6]: 1.6 nM

^99mTc-N4-GRP(14–27): ^99mTc-labeled N4-GRP(14–27) radioligand (N4-MYPRGNHWAVGHLM-NH2; ends and bridges not checked; also: 99mTc complex at N4; UniProt P07492 37-50, looked up, fragment)
specifically internalized, % of total added activity ([7]; 1 h): 12.7 ± 0.7%
specifically internalized, % of total added activity ([7]; 2 h): 19.5 ± 1.4%

^99mTc-N4-GRP(18–27): ^99mTc-labeled N4-GRP(18–27) radioligand (N4-GNHWAVGHLM-NH2; ends and bridges not checked; also: 99mTc complex at N4; UniProt P07492 41-50, looked up, fragment)
specifically internalized, % of total added activity ([7]; 1 h): 5.0 ± 0.3%
specifically internalized, % of total added activity ([7]; 2 h): 6.9 ± 1.5%
